Here are results for 21 compounds from patent US7514448B2, “Azaindoles useful as inhibitors of rock and other protein kinases” (Vertex Pharmaceuticals Incorporated, priority 2004, dated 2009).

What all share (type): biochemical
The target of test [1] is T1, Itk (Homo sapiens, UniProt Q08881).
T1 sequence (Q08881 1-620): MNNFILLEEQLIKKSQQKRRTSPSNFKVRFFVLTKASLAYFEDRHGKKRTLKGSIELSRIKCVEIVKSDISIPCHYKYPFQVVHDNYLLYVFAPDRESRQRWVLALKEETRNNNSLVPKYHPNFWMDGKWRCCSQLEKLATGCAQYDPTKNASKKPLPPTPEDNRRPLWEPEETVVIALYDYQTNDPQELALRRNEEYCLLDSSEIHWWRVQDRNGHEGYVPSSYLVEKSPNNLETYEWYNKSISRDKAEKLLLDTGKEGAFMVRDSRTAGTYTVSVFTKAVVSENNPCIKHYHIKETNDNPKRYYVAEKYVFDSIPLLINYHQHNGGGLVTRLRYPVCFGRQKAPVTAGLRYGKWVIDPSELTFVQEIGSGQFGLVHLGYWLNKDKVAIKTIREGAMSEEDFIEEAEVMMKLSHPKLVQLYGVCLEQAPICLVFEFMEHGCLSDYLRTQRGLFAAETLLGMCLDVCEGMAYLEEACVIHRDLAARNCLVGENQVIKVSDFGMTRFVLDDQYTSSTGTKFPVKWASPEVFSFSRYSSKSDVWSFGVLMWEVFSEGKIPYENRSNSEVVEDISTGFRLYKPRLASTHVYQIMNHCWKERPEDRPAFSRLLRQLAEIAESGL
In words: Itk inhibition assay, coupled enzyme. As to conditions: average Ki if more than one determined. How it is done: Compounds were screened for their ability to inhibit Itk using a standard coupled enzyme assay (Fox et al., Protein Sci., (1998) 7, 2249). Assays were carried out in a mixture of 20 mM MOPS (pH 7.0), 10 mM MgCl2, 0.1% BSA, 1 mM DTT, 2.5 mM phosphoenolpyruvate, 300 μM NADH, 30 μg/ml pyruvate kinase and 10 μg/ml lactate dehydrogenase. Final substrate concentrations in the assay were 100 μM ATP (Sigma Chemicals) and 3 μM peptide (Biotinylated SAM68 D332-443). Assays were carried out at 25° C. and in the presence of 100 nM Itk.
An assay stock buffer solution was prepared containing all of the reagents listed above, with the exception of ATP and the test compound of interest. 60 μl of the stock solution was placed in a 96 well plate followed by addition of 2 μl of DMSO stock containing serial dilutions of the test compound (typically starting from a final concentration of 15 μM). The plate was preincubated for 10 minutes at 25° C. and the reaction initiated by addition of 5 μl of ATP. Initial reaction rates were determined with a Molecular Devices SpectraMax Plus plate reader over a 10 minute time course. IC50 and Ki data were calculated from non-linear regression analysis using the Prism software package (GraphPad Prism version 3.0cx for Macintosh, GraphPad Software, San Diego Calif., USA).

Test [2] concerns the target PKA (Homo sapiens, UniProt P17612). In words: PKA inhibition assay, coupled enzyme. Particulars: average Ki if more than one determined. The method, boiled down: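 Coupled PK/LDH assay following NADH depletion: 18 nM PKA, 50 μM ATP, 80 μM Kemptide in 100 mM HEPES pH 7.5, 10 mM MgCl2, 25 mM NaCl, 1 mM DTT, 3% DMSO, at 30 °C. Compound preincubated 10 min before ATP start; initial rates over 15 min, IC50 and Ki by non-linear regression.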

In test [3] the target is ROCK I (AA 6-553) (Homo sapiens, UniProt Q13464). In words: ROCK inhibition assay, coupled enzyme system ("Enzyme"). Particulars: enzyme-linked assay; average Ki if more than one determined. How it is done:
Reactions were carried out in a solution containing 100 mM HEPES (pH 7.5), 10 mM MgCl2, 25 mM NaCl, 2 mM DTT and 1.5% DMSO.
(§1) If more than one value of Ki has been determined, the average Ki is indicated. If no value is indicated, then the Ki was not determined.

Test [4] deals with ROCK (Homo sapiens, UniProt Q13464). As to the kind of experiment: ROCK radioactive assay ("33P"). As to conditions: radioactive assay; average Ki if more than one determined; read-out: ROCK 33P Ki.
Source text: as §1

ROCK I (AA 6-553), sequence (Q13464 6-553, species assumed): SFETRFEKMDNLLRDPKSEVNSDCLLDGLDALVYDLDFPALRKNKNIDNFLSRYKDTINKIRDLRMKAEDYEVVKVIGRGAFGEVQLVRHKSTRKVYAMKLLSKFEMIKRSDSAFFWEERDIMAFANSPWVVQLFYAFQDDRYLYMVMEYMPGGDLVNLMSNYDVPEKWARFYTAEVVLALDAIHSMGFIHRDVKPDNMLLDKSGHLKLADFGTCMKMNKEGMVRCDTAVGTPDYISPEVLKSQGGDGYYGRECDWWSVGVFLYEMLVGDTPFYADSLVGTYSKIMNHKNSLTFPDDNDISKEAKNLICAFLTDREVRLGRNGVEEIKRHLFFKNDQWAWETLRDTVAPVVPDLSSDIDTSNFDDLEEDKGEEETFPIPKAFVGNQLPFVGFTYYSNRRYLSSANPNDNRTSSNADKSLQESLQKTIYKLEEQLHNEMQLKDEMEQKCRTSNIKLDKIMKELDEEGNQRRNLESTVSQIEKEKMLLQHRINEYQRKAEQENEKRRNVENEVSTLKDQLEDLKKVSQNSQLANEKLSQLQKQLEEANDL
ROCK, sequence (Q13464 whole entry): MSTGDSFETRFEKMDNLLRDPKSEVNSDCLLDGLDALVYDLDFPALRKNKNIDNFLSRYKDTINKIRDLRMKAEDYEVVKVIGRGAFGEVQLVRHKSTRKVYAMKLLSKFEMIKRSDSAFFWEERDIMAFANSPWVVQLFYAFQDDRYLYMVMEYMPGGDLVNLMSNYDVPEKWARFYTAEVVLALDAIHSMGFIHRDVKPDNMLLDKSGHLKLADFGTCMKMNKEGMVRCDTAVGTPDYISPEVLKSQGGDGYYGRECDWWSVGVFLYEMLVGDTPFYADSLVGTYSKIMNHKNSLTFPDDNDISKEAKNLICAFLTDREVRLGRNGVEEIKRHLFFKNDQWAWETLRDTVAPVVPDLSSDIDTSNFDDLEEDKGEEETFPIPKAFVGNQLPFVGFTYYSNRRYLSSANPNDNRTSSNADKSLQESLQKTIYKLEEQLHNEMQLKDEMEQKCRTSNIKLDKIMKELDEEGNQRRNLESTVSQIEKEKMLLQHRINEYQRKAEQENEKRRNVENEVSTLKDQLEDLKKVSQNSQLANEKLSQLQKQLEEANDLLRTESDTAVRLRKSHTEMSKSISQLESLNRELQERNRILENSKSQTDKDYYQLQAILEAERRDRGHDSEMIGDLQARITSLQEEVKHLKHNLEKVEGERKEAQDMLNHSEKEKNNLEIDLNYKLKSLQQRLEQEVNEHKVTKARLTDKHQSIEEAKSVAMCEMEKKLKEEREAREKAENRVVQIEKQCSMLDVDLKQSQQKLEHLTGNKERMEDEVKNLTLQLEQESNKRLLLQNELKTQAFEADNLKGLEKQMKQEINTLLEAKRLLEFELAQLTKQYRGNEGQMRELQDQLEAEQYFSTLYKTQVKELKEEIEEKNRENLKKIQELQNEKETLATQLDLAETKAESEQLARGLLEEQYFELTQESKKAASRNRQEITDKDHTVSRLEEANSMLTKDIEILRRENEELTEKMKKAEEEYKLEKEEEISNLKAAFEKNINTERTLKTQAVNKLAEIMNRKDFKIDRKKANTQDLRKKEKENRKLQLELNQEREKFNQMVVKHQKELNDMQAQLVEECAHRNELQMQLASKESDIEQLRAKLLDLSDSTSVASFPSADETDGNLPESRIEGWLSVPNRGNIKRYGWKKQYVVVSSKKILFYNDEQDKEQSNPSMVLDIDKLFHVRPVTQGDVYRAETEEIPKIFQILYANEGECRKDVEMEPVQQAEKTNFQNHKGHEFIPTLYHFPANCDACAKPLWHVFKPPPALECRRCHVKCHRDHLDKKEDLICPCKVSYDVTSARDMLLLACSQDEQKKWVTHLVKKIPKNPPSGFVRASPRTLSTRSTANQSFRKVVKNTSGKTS

A word on the Ki: it is a dissociation constant, usually derived from enzyme kinetics or from competition with a known ligand. Regarding `O=C(Cc1ccccc1)Nc1nc(-c2c[nH]c3ncccc23)cs1` [I-1], the inhibition constant Ki in test [1] is 500 to 5000 nM; in test [2] it was below 500 nM.

For the compound `O=C(Cc1ccccc1)N(c1nc(-c2c[nH]c3ncccc23)cs1)C1CC1` [I-20], the values for the Ki in test [1], in test [2] and in test [3] were 500 to 5000 nM, below 500 nM and below 500 nM, respectively.

For the compound `O=C(Cc1ccc(F)cc1)N(c1nc(-c2c[nH]c3ncccc23)cs1)C1CC1` [II-53], the Ki is 500 to 5000 nM in test [1], below 500 nM in test [2] and below 500 nM in test [3].

`O=C(CCc1ccccc1)N(c1nc(-c2c[nH]c3ncccc23)cs1)C1CC1` [II-54]: the results for the Ki in test [1], in test [2] and in test [3] were 500 to 5000 nM, below 500 nM and below 500 nM, respectively.

As to `O=C(Cc1ccccc1)Nc1nc(-c2c[nH]c3ncc(Br)cc23)cs1` [II-79], the Ki in test [4] was below 500 nM; in test [1], 500 to 5000 nM; in test [2] it was below 500 nM; in test [3], below 500 nM.

`COc1cccc(CC(=O)Nc2ccc(-c3c[nH]c4ncccc34)s2)c1` [II-127]: the Ki in test [4], in test [2] and in test [3] was below 500 nM throughout.

As to `CS(=O)(=O)Nc1cccc(CC(=O)Nc2ccc(-c3c[nH]c4ncccc34)s2)c1` [II-128], the inhibition constant Ki in test [4], in test [2] and in test [3] was below 500 nM each time.

Consider `O=C(Cc1cccc(S(=O)(=O)N2CCOCC2)c1)Nc1ccc(-c2c[nH]c3ncccc23)s1` [II-129], for which the Ki is below 500 nM in test [4], 500 to 5000 nM in test [2] and below 500 nM in test [3].

Regarding `CC(C)C(=O)Nc1nc(-c2c[nH]c3ncccc23)cs1` [II-162], the inhibition constant Ki in test [4] is below 500 nM; in test [1], 500 to 5000 nM; in test [2] it was 500 to 5000 nM.

Turning to `O=C(NCC1CCNCC1)c1nc(-c2c[nH]c3ncc(-c4ccccc4)cc23)cs1` [II-245], the Ki is below 500 nM in test [4], 500 to 5000 nM in test [1] and 500 to 5000 nM in test [2].

Regarding `O=C(Nc1nc(-c2c[nH]c3ncc(Br)cc23)cs1)C1Cc2ccccc2C1` [II-246], the values for the Ki in test [4], in test [1] and in test [2] were below 500 nM, 500 to 5000 nM and 500 to 5000 nM, respectively.

Take `O=C(Nc1nc(-c2c[nH]c3ncc(Br)cc23)cs1)C1CC1` [II-247]: the Ki was below 500 nM in test [4], 500 to 5000 nM in test [1] and 500 to 5000 nM in test [2].

As for `O=C(CC1CCCC1)Nc1nc(-c2c[nH]c3ncc(Br)cc23)cs1` [II-248], the Ki is 500 to 5000 nM in test [4], 500 to 5000 nM in test [1] and below 500 nM in test [2].

Consider `O=C(CCc1ccccc1)Nc1nc(-c2c[nH]c3ncc(Br)cc23)cs1` [II-249], for which the Ki in test [4] was below 500 nM; in test [1] it was 500 to 5000 nM; in test [2] it was 500 to 5000 nM.

Take `O=C(Cc1ccc(Br)cc1)Nc1nc(-c2c[nH]c3ncc(Br)cc23)cs1` [II-250]: the values for the inhibition constant (Ki) in test [1] and in test [2] were 500 to 5000 nM and below 500 nM, respectively.

Consider `O=C(CCC1CCCCC1)Nc1nc(-c2c[nH]c3ncc(Br)cc23)cs1` [II-251], for which the Ki in test [4] is 500 to 5000 nM; in test [1], 500 to 5000 nM; in test [2], below 500 nM.

Consider `O=C(Nc1nc(-c2c[nH]c3ncc(Br)cc23)cs1)C1CCOC1` (centres unmarked) [II-252], for which the Ki in test [4] was below 500 nM; in test [1], 500 to 5000 nM; in test [2], 500 to 5000 nM.

In the case of `O=C(CCS(=O)(=O)c1ccccc1)Nc1nc(-c2c[nH]c3ncc(Br)cc23)cs1` [II-253], the inhibitory constant (Ki) in test [4] is 500 to 5000 nM; in test [1], 500 to 5000 nM; in test [2], below 500 nM.

On to `O=C(CCOc1ccccc1)Nc1nc(-c2c[nH]c3ncc(Br)cc23)cs1` [II-254], for which the Ki in test [4] was below 500 nM; in test [1], 500 to 5000 nM; in test [2] it was 500 to 5000 nM.

For the compound `O=C(CCNC(=O)OCc1ccccc1)Nc1nc(-c2c[nH]c3ncc(Br)cc23)cs1` [II-255], the Ki in test [1] and in test [2] was 500 to 5000 nM throughout.

Regarding `CCN(C(=O)CC1CCCC1)c1nc(-c2c[nH]c3ncc(Br)cc23)cs1` [II-256], the inhibition constant (Ki) in test [1] was in the range of 500 to 5000 nM.
